According to ChEMBL document CHEMBL1201862, “PubChem BioAssay data set” (2004):
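Exposure lasted 48 hours, with cells grown in 96-well plates and compounds tested at five concentrations. GI50 marks 50% less growth.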 Activity calls are given as the source filed them. No stated cut-off is given here; in the data, active = GI50 up to about 1.1 µM and inactive = higher.

Columns and labels:
Experiment in all cases: NCI-60 cell line screen, 48 h
MOLT-4 = tested on: MOLT-4
HT-29 = tested on: HT-29
SK-MEL-5 = tested on: SK-MEL-5
OVCAR-3 = tested on: OVCAR-3
COLO 205 = tested on: COLO 205
TK-10 = tested on: TK-10
SR = tested on: SR
SF-295 = tested on: SF-295
HL-60 = tested on: HL-60
UO-31 = tested on: UO-31
HCT-116 = tested on: HCT-116
ACHN = tested on: ACHN
M19-MEL = tested on: M19-MEL
NCI-H23 = tested on: NCI-H23
M14 = tested on: M14
HCT-15 = tested on: HCT-15
RXF 393 = tested on: RXF 393
SK-OV-3 = tested on: SK-OV-3
U-251 = tested on: U-251

| Structure (SMILES) | GI50 (MOLT-4) | GI50 (HT-29) | GI50 (SK-MEL-5) | GI50 (OVCAR-3) | GI50 (COLO 205) | GI50 (TK-10) | GI50 (SR) | GI50 (SF-295) | GI50 (HL-60) | GI50 (UO-31) | GI50 (HCT-116) | GI50 (ACHN) | GI50 (M19-MEL) | GI50 (NCI-H23) | GI50 (M14) | GI50 (HCT-15) [µM] | GI50 (RXF 393) | GI50 (SK-OV-3) | GI50 (U-251) |
| --- | --- | --- | --- | --- | --- | --- | --- | --- | --- | --- | --- | --- | --- | --- | --- | --- | --- | --- | --- |
| C/C=C1\C=C(OC)CN(CCc2c[nH]c3ccccc23)C1 | > 100 µM (inactive) | 25.4 µM (inactive) | 20.2 µM (inactive) | 53.5 µM (inactive) | 34.3 µM (inactive) | > 100 µM (inactive) | 61.8 µM (inactive) | 27.9 µM (inactive) | 61 µM (inactive) | 75 µM (inactive) | 36.4 µM (inactive) | > 100 µM (inactive) | 79.8 µM (inactive) | > 100 µM (inactive) | 27.7 µM (inactive) | 56.6 |  |  |  |
| O=C(c1cc2ccccc2o1)N(Cc1ccccc1)c1ccccc1 | 16.6 µM (inactive) | 22.8 µM (inactive) | 16.1 µM (inactive) | 20.3 µM (inactive) | 20.4 µM (inactive) | 33.6 µM (inactive) | 26.9 µM (inactive) | 34.4 µM (inactive) | 16.4 µM (inactive) | 22.9 µM (inactive) | 16.9 µM (inactive) | 26.6 µM (inactive) | 21.7 µM (inactive) | 27 µM (inactive) | 18.6 µM (inactive) | 18 | 26 µM (inactive) | 33.2 µM (inactive) |  |
| CC1CC(=O)CC[C@@H]1OCc1ccccc1 (stereo not given in full) | 54.3 µM (inactive) | > 100 µM (inactive) | > 100 µM (inactive) | > 100 µM (inactive) | > 100 µM (inactive) | > 100 µM (inactive) |  | > 100 µM (inactive) | > 100 µM (inactive) | > 100 µM (inactive) | 81.3 µM (inactive) | > 100 µM (inactive) | > 100 µM (inactive) | > 100 µM (inactive) | > 100 µM (inactive) | > 100 | > 100 µM (inactive) | > 100 µM (inactive) | > 100 µM (inactive) |
| Cc1ccc(C(=O)N2CCCCC2)cc1/N=N/N(C)C | > 100 µM (inactive) | > 100 µM (inactive) | > 100 µM (inactive) | > 100 µM (inactive) | > 100 µM (inactive) | > 100 µM (inactive) | > 100 µM (inactive) | > 100 µM (inactive) | > 100 µM (inactive) | > 100 µM (inactive) | > 100 µM (inactive) | > 100 µM (inactive) | > 100 µM (inactive) | > 100 µM (inactive) | > 100 µM (inactive) | > 100 |  | > 10 µM (inactive) |  |
| COc1cccc(NC(=S)Nn2c(C)nc3ccccc3c2=O)c1 | > 100 µM (inactive) | > 100 µM (inactive) | > 100 µM (inactive) |  | > 100 µM (inactive) | > 100 µM (inactive) | > 100 µM (inactive) | > 100 µM (inactive) | > 100 µM (inactive) | > 100 µM (inactive) | > 100 µM (inactive) | > 100 µM (inactive) | > 100 µM (inactive) | > 100 µM (inactive) | > 100 µM (inactive) | > 100 | > 100 µM (inactive) | > 100 µM (inactive) | > 100 µM (inactive) |
| CN1CCCNCCN(CCc2ccccn2)CCCN(C)CC1 | > 100 µM (inactive) | > 100 µM (inactive) | > 100 µM (inactive) | > 100 µM (inactive) | > 43.5 µM (inactive) | > 100 µM (inactive) | 29.1 µM (inactive) | > 100 µM (inactive) | > 48.8 µM (inactive) | > 100 µM (inactive) | > 66.2 µM (inactive) | > 100 µM (inactive) | > 59.4 µM (inactive) | > 100 µM (inactive) | > 95.7 µM (inactive) | > 43.5 |  | > 100 µM (inactive) | > 94.6 µM (inactive) |
